Consider seven compounds from PubChem BioAssay (NCI).

Among the test systems are U251 CNS; HCT-15 colon; PC-3 prostate; K-562 leukemia; UACC-62 melanoma; UACC-257 melanoma; NCI-H522 lung; SK-MEL-5 melanoma; MDA-N; HOP-92 NSCLC; HL-60(TB) leukemia; HT29 colon; NCI-H23 lung; SR leukemia; SNB-19 CNS; SF-539 CNS; OVCAR-3 ovarian; SNB-75 CNS; LOX IMVI melanoma; HOP-62 NSCLC.
Assay in all cases: NCI-60 cell line screen, 48 h

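Compound exposure: 48 hours, 5 concentrations, 96-well plates. TGI is the concentration that stops growth completely.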

`Cc1c(O)nc(-n2[nH]c3c(c2=O)CCCC3)[nH]c1=O`: the TGI in the test with U251 CNS, with HCT-15 colon, in the test on PC-3 prostate, with K-562 leukemia, in the test on UACC-62 melanoma and with UACC-257 melanoma was over 100 µM throughout. Also, the TGI in the test with NCI-H522 lung, with SK-MEL-5 melanoma, in the test with MDA-N, in the test on HOP-92 NSCLC, in the test on HL-60(TB) leukemia and with HT29 colon was over 100 µM throughout. Moreover, the TGI in the test with NCI-H23 lung, in the test on SR leukemia and in the test with SNB-19 CNS was over 100 µM throughout.

For `C=C(C(=O)OCC)C(=O)OCC`, the TGI with U251 CNS, in the test on HCT-15 colon, in the test with PC-3 prostate, with K-562 leukemia, in the test with UACC-62 melanoma and with SF-539 CNS was over 100 µM in each case. Also, the TGI in the test on OVCAR-3 ovarian, in the test on UACC-257 melanoma, with SNB-75 CNS, in the test on NCI-H522 lung, in the test with SK-MEL-5 melanoma and with MDA-N was over 100 µM each time. Moreover, the TGI in the test with HOP-92 NSCLC, in the test with LOX IMVI melanoma, with HOP-62 NSCLC, in the test on HT29 colon, in the test on NCI-H23 lung and in the test with SR leukemia was over 100 µM throughout. The compound also came in with a TGI in the test on SNB-19 CNS of over 100 µM.

For the compound `CC(C)c1cc2c(c(O)c1O)[C@@]1(C(=O)O)CCCC(C)(C)[C@@H]1CC2`, the TGI was 30.3 µM in the test with U251 CNS; over 100 µM in the test with HCT-15 colon; 33.9 µM with PC-3 prostate; over 100 µM in the test with K-562 leukemia; 30.8 µM in the test with UACC-62 melanoma; 38.8 µM with SF-539 CNS. Besides, the TGI with OVCAR-3 ovarian is 57.3 µM; in the test with UACC-257 melanoma, 33.4 µM; in the test on SNB-75 CNS, 34 µM; with NCI-H522 lung it was 25.8 µM; in the test on SK-MEL-5 melanoma it was 47.2 µM; with MDA-N it was over 100 µM. For the same compound, the TGI in the test with HOP-92 NSCLC came to 20.8 µM; in the test on LOX IMVI melanoma it was 53 µM; in the test on HOP-62 NSCLC it was 65.2 µM; with HT29 colon it was 30.7 µM; in the test with NCI-H23 lung it was 46.9 µM; with SR leukemia it was 33.7 µM.

On to `N#CNC(=NCc1ccccc1)N(Cc1ccccc1)Cc1ccccc1`, for which the TGI in the test on U251 CNS is over 31.6 µM; with HCT-15 colon, over 31.6 µM; in the test on PC-3 prostate, over 100 µM; in the test on K-562 leukemia it was over 100 µM; in the test on UACC-62 melanoma, 23.4 µM; with SF-539 CNS, over 31.6 µM. Moreover, the TGI in the test on OVCAR-3 ovarian is over 31.6 µM; in the test with NCI-H522 lung, over 31.6 µM; in the test with SK-MEL-5 melanoma, 26.7 µM; in the test with MDA-N, over 100 µM; in the test with HOP-92 NSCLC it was over 31.6 µM; in the test on LOX IMVI melanoma, over 31.6 µM. Also, the TGI in the test with HOP-62 NSCLC is over 31.6 µM; with HL-60(TB) leukemia, over 31.6 µM; with NCI-H23 lung it was over 31.6 µM; in the test on SR leukemia, over 72.9 µM; in the test on SNB-19 CNS it was over 100 µM.

Regarding `CN1CCOC1c1ccccc1O` (stereo not given), the TGI in the test with U251 CNS, in the test with HCT-15 colon, with PC-3 prostate, with K-562 leukemia, in the test with UACC-62 melanoma and in the test with SF-539 CNS was over 100 µM throughout. Besides, the TGI in the test on OVCAR-3 ovarian, in the test on UACC-257 melanoma, in the test with SNB-75 CNS, in the test on NCI-H522 lung, in the test with SK-MEL-5 melanoma and in the test with MDA-N was over 100 µM throughout. The TGI in the test with HOP-92 NSCLC, in the test with LOX IMVI melanoma, in the test on HOP-62 NSCLC, in the test with HT29 colon, in the test with NCI-H23 lung and in the test with SR leukemia was over 100 µM in each case. In addition, the TGI with SNB-19 CNS was over 100 µM.

In the case of `CC1(C)[C@@H]2CC[C@@]1(C)CN(CCC[N+](C)(C)C)C2`, the TGI in the test on U251 CNS, in the test with HCT-15 colon, in the test on PC-3 prostate, with K-562 leukemia, in the test with UACC-62 melanoma and in the test with SF-539 CNS was over 100 µM throughout. Also, the TGI with OVCAR-3 ovarian, in the test with UACC-257 melanoma, with SNB-75 CNS, with NCI-H522 lung, in the test with SK-MEL-5 melanoma and in the test on MDA-N was over 100 µM each time. Besides, the TGI in the test with HOP-92 NSCLC, in the test with LOX IMVI melanoma, in the test on HOP-62 NSCLC, in the test on HT29 colon, in the test with NCI-H23 lung and in the test with SR leukemia was over 100 µM throughout. In addition, the TGI in the test on SNB-19 CNS is over 100 µM.

On to `CC(C)(C)[Si](C)(C)OCC1OC(n2ccc(=O)[nH]c2=O)C(O[Si](C)(C)C(C)(C)C)/C1=C/C#N` (stereo not given), for which the TGI with U251 CNS is over 44 µM; with HCT-15 colon, over 100 µM; in the test with PC-3 prostate it was over 100 µM; in the test with UACC-62 melanoma, 2.75 µM; with SF-539 CNS it was over 64 µM; in the test with OVCAR-3 ovarian, over 100 µM. For the same compound, the TGI is over 100 µM in the test on UACC-257 melanoma; over 100 µM in the test with SNB-75 CNS; over 100 µM with NCI-H522 lung; 11.9 µM with SK-MEL-5 melanoma; over 85.7 µM with MDA-N; over 68.8 µM with HOP-92 NSCLC. Further, the TGI with LOX IMVI melanoma was over 51.2 µM; in the test on HOP-62 NSCLC, over 100 µM; in the test on HT29 colon it was over 47.7 µM; in the test on NCI-H23 lung, over 100 µM; in the test on SR leukemia it was over 100 µM; with SNB-19 CNS, over 100 µM.
